Assay results reported in patent publication US9156796B2, “Benzoimidazole-carboxylic acid amide derivatives as APJ receptor modulators” (SANOFI, priority 2013, dated 2015).

What follows are compounds tested against T1, human apelin receptor (Homo sapiens, UniProt P35414) (assay: Determination of agonism on the human apelin receptor by a calcium fluorescence assay (FLIPR)). Conditions: HEK293 cells stably transfected with human apelin receptor and Giaq protein, Fluo-4 calcium fluorescence, read-out: EC50 (APJ agonism).
T1 construct: expressed in transfected cells
T1 sequence (P35414 1-380): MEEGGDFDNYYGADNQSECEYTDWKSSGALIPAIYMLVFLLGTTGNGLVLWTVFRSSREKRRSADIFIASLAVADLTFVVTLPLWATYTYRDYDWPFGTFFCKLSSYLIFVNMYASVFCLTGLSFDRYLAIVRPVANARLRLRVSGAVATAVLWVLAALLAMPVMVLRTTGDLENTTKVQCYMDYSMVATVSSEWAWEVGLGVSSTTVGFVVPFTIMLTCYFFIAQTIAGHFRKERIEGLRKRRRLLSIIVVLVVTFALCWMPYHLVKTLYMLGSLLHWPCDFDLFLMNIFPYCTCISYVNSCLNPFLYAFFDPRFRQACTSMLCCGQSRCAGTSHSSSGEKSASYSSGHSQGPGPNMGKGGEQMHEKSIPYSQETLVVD
Type: cell-based
Outline: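 Agonist EC50s come from peak intracellular calcium transients recorded by FLIPR Tetra, scaled to the 1 μM apelin-13 maximum per plate. Test system: HEK293 stably transfected with human apelin receptor plus Giaq, Fluo-4-loaded (4 μM, 1 h, 37 °C, pH 7.4 buffer with probenecid); ≥7 concentrations, triplicates.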

SMILES | EC50 [nM]
CCC(CC)n1c(Cc2cccs2)nc2cc(C(=O)N[C@@H](CC(C)C)C(=O)N(C)CCc3ccccc3)ccc21 [Example 264, 1-(1-Ethyl-propyl)-2-thiophen-2-ylmethyl-1H-benzoimidazole-5-carboxylic acid [(S)-3-methyl-1-(methyl-phenethyl-carbamoyl)-butyl]-amide] | 3340
CCC(CC)n1c(Cc2cccs2)nc2cc(C(=O)N[C@@H](Cc3ccc(Cl)cc3)C(=O)O)ccc21 [Example 20, (S)-3-(4-Chloro-phenyl)-2-{[1-(1-ethyl-propyl)-2-thiophen-2-ylmethyl-1H-benzoimidazole-5-carbonyl]-amino}-propionic acid] | 1830
CCC(CC)n1c(Cc2cccs2)nc2cc(C(=O)N[C@@H](CC(C)C)C(=O)N(C)Cc3n[nH]c(=O)[nH]3)ccc21 [Example 405, 1-(1-Ethyl-propyl)-2-thiophen-2-ylmethyl-1H-benzoimidazole-5-carboxylic acid {(S)-3-methyl-1-[methyl-(5-oxo-4,5-dihydro-1H-[1,2,4]triazol-3-ylmethyl)-carbamoyl]-butyl}-amide] | 842
C[C@@H]1CCCC[C@H]1n1c(Cc2cccs2)nc2cc(C(=O)N[C@H](CC(=O)O)CC3CCCC3)ccc21 [Example 61, (S)-4-Cyclopentyl-3-{[1-((1R,2R)-2-methyl-cyclohexyl)-2-thiophen-2-ylmethyl-1H-benzoimidazole-5-carbonyl]-amino}-butyric acid] | 75
CCC(CC)n1c(Cc2cccs2)nc2cc(C(=O)N[C@@H](CC(C)C)C(=O)N3CCN(CC(C)C)CC3)ccc21 [Example 272, 1-(1-Ethyl-propyl)-2-thiophen-2-ylmethyl-1H-benzoimidazole-5-carboxylic acid [(S)-1-(4-isobutyl-piperazine-1-carbonyl)-3-methyl-butyl]-amide] | 2770
CCC(CC)n1c(Cc2cccs2)nc2cc(C(=O)N[C@@H](CC(C)C)C(=O)N3CC4CC3CN4Cc3ccc(C(F)(F)F)cc3)ccc21 (stereo partly drawn) [Example 350, 1-(1-Ethyl-propyl)-2-thiophen-2-ylmethyl-1H-benzoimidazole-5-carboxylic acid {(S)-3-methyl-1-[5-(4-trifluoromethyl-benzyl)-2,5-diaza-bicyclo[2.2.1]heptane-2-carbonyl]-butyl}-amide] | 29100
C[C@@H]1CCCC[C@H]1n1c(Cc2cccs2)nc2cc(C(=O)NC(CC(=O)O)CC3CCCCC3)ccc21 (single isomer, unassigned) [Example 457] | 1460
CCC(CC)n1c(Cc2cccs2)nc2cc(C(=O)N[C@@H](CC(C)C)C(=O)NCC3CCN(CC(C)C)C3)ccc21 (stereo partly drawn) [Example 304, 1-(1-Ethyl-propyl)-2-thiophen-2-ylmethyl-1H-benzoimidazole-5-carboxylic acid {(S)-1-[(1-isobutyl-pyrrolidin-3-ylmethyl)-carbamoyl]-3-methyl-butyl}-amide] | 461

Continued, values first:

EC50 [nM] | SMILES
258 | CCC(CC)n1c(Cc2cccs2)nc2cc(C(=O)NC(CC(=O)O)C3CCCCC3)ccc21 (stereo not drawn) [Example 44, 3-Cyclohexyl-3-{[1-(1-ethyl-propyl)-2-thiophen-2-ylmethyl-1H-benzoimidazole-5-carbonyl]-amino}-propionic acid]
176 | CCC(CC)n1c(Cc2cccs2)nc2cc(C(=O)NC3(CC(=O)O)CCCCC3)ccc21 [Example 64, (1-{[1-(1-Ethyl-propyl)-2-thiophen-2-ylmethyl-1H-benzoimidazole-5-carbonyl]-amino}-cyclohexyl)-acetic acid]
6300 | CCC(CC)n1c(Cc2cccs2)nc2cc(C(=O)N[C@@H](CO)CC(C)C)ccc21 [Example 191, 1-(1-Ethyl-propyl)-2-thiophen-2-ylmethyl-1H-benzoimidazole-5-carboxylic acid ((R)-1-hydroxymethyl-3-methyl-butyl)-amide]
74 | CCC(C)[C@H](NC(=O)c1ccc2c(c1)nc(Cc1cccs1)n2C(CC)CC)C(=O)O (stereo partly drawn) [Example 121, (S)-2-{[1-(1-Ethyl-propyl)-2-thiophen-2-ylmethyl-1H-benzoimidazole-5-carbonyl]-amino}-3-methyl-pentanoic acid]
